Source: PubChem BioAssay AID623931 (Vanderbilt Specialized Chemistry Center, 2012)

What was measured:
PubChem AID 623931 = conditions: Ricerca radioligand binding panel, % inhibition, at 10 µM, stronger effect = higher value
[1] = target: 5-hydroxytryptamine receptor 2B (Homo sapiens) (UniProt P41595); assay: PubChem AID 623931; conditions: Ricerca radioligand binding panel, % inhibition; at 10 µM; stronger effect = higher value

Molecule `COc1ccc(C#Cc2ccc(C(=O)N3CCC[C@@H](CO)C3)cc2)cc1` has an inhibition (PubChem AID 623931; GABA-A muscimol site binding) of 21%, an inhibition (PubChem AID 623931; K-ATP channel binding) of 21% and an inhibition (PubChem AID 623931; adenosine A3 receptor binding) of 44%. It also gave an inhibition (PubChem AID 623931; dopamine D3 receptor binding) of 19%, an inhibition (PubChem AID 623931; dopamine transporter DAT binding) of 88% and an inhibition (PubChem AID 623931; hERG potassium channel binding) of 13%. It also gave an inhibition (PubChem AID 623931; imidazoline I2 binding) of 35%, an inhibition (PubChem AID 623931; norepinephrine transporter NET binding) of 28% and an inhibition (PubChem AID 623931; prostanoid EP4 receptor binding) of 45%. For the same molecule, the inhibition (PubChem AID 623931; purinergic P2Y binding) was 23%, the inhibition (PubChem AID 623931; serotonin transporter SERT binding) was 50% and the inhibition (PubChem AID 623931; sigma 1 receptor binding) was 37%. The inhibition [1] was 71%.
